Where two headings read alike, the source gives them in different places.
Key:
Format in all cases: cell-based
[1] = tested on: SNU449 HCC cells; assay: SNU449 cell proliferation (cellular DNA, Hoechst); conditions: Homo sapiens
Method: SNU449 HCC cells were plated at 20,000 cells/well in 12-well plates. The next day, cells were treated with SSI-4, sorafenib or sorafenib plus SSI-4 at the indicated doses. […] On day 5, cells were frozen, DNA isolated and quantitated by […] (Hoechst reagent) in a spectrophotometer. Cellular DNA is directly proportional to cell number and is commonly used as a measure of cell number. All doses are in replicates of three with the mean +/−standard deviation determined.

[2] = tested on: ATF6-UPRE luciferase reporter in A498 and ACHN cells; assay: ATF6-UPRE luciferase reporter assay; conditions: EC50 dose, 24H; both cell lines A498 and ACHN; completely blocked with OA
Method: A498 and ACHN cells were transiently transfected with p5×ATF6-GL3 UPR luciferase reporter (Addgene plasmid#11976) and pRL-CMV-renilla (Promega) using Lipofectamine 2000 (Invitrogen). Cells were treated as indicated for 24H, prior to collection and analysis using Promega Dual Luciferase assay kit per manufacturer's specifications. Luciferase activity was measured using Veritas Luminometer (Promega); and results are reported as relative luminescence.
(§1) Activating transcription factor 6 (ATF6) is a key regulator of the unfolded protein response (UPR) that recognizes unfolded protein response elements (UPRE) in the promoter regions of several key mediators of the ER stress response, initiating their transcription (Wang Y, Shen J, Arenzana N, Tirasophon W, Kaufman R J, Prywes R. Activation of ATF6 and an ATF6 DNA binding site by the endoplasmic reticulum stress response. J Biol Chem. Sep. 1, 2000; 275(35):27013-27020). A498 and ACHN transfected with an ATF6-UPRE luciferase reporter were treated with the EC50 doses of ChemBL375265, SSI-1, SSI-4, SSI-3, and SSI-2 with or without OA supplementation were evaluated in order to determine whether the identified compounds could recapitulate activation of the UPR. […] Upregulation of the UPR markers BiP (heat shock 70 kDa protein, GRP78) and CHOP (damage inducible transcript 3, DDIT3) was evaluated by Western blot in A498 and ACHN cells treated with the EC50 doses of ChemBL375265, SSI-1, SSI-4, SSI-3, and SSI-2 with or without OA supplementation.

[3] = tested on: HK2, a transformed renal epithelial cell line; assay: High-throughput proliferative screen, non-cancerous cells
Method: (§2) Cells were seeded at 5,000 cells/well in clear-bottom 96-well plates in triplicate in Maintenance Media. Drug treatment was applied at a concentration of 1:1000 in reduced serum (3%) Maintenance Media. After 72 hours, cells were washed with PBS, and stored at −80° C. prior to analysis using CyQuant® Proliferation Analysis Kit (Invitrogen) as per manufacturers' protocol for relative fluorescence units. Alternatively, cells were plated 2×10^5/well in 12-well plates (Midwest Scientific) in triplicate prior to drug treatment. After 120 hour treatment, cell number was established using a Coulter Particle Counter (Beckman). Or, cells were plated (0.5 or 1×10^5/well) in 24-well plates (Midwest Scientific), 3×. After 72 hour treatment, cell number established using Coulter Particle Counter (Beckman). Oleic acid-albumin (Sigma Aldrich) was added to media at 5 μM, and was applied adjuvant to drug treatment. Drug stocks were prepared in DMSO (Sigma) at 1000×. EC50 dosing per cell line was calculated using CalcuSyn® analytical software.
In order to identify potential SCD1 inhibitors, a high-throughput proliferative-based screening method was used, with four ccRCC cell lines including A498, ACHN, Caki1, and Caki2. The SCD1 inhibitor MF-438 was included as a positive control. Known compounds ChemBL375265 (Liu G, Lynch J K, Freeman J, et al. Discovery of potent, selective, orally bioavailable stearoyl-CoA desaturase 1 inhibitors. Journal of medicinal chemistry. Jun. 28, 2007; 50(13): 3086-3100) (SetA.100) and SAR707 (Voss M D, Zoller G, Matter H, et al. Discovery and pharmacological characterization of SAR707 as novel and selective small molecule inhibitor of stearoyl-CoA desaturase (SCD1). European journal of pharmacology. May 5, 2013; 707(1-3): 140-146) (TC03.100) were included as single-blinded positive controls, and are indicated with an asterisk (*). […]

[4] = tested on: A498, ACHN, and Caki1 cell lines; assay: Oleic acid (OA) rescue assay of cell proliferation in ccRCC cells; conditions: EC50 dose of compound with OA (5 μg/μL); all three cell lines
Method: as §2
A498, ACHN, and Caki1 cell lines were treated with the EC50 dose of each MF-438, ChemBL375265, SSI-1, SSI-4, SSI-3, and SSI-2 with or without concomitant application of OA (5 μg/μL). […] Representative images of A498 cell morphology and density treated with each compound +/−OA are shown in (FIG. 2B).

[5] = tested on: BiP and CHOP expression in A498 and ACHN cells; assay: Western blot for UPR markers BiP and CHOP; conditions: EC50 dose; both cell lines; blocked with concomitant OA treatment
Method: Protein extraction and western blot analysis was performed as previously described (Copland J A, Marlow L A, Kurakata S, et al. Novel high-affinity PPARgamma agonist alone and in combination with paclitaxel inhibits human anaplastic thyroid carcinoma tumor growth via p21WAF1/CIP1. Oncogene. Apr 13 2006; 25(16):2304-2317). Primary antibodies included SCD1 (Sigma-Aldrich, #HPA012107), BiP (Cell Signaling, #3183), CHOP (Cell Signaling, #2895), sXBP1(Santa Cruz Biotechnology, #sc-7160), PARP(Cell Signaling, #9542), and β-actin (Sigma-Aldrich, #A5441).
as §1

[6] = tested on: kidney cancer cells; assay: Combination with mTor inhibitor temsirolimus, cell proliferation; conditions: different concentrations with 0, 0.1, 1, and 10 nM temsirolimus

Row | IC50 ([1]; SNU-449, SNU449, read-out: IC50 (dose at which 50% of cell proliferation is inhibited)) [µM] | Structure (SMILES) | luciferase activity [2] | reduction in cell proliferation [3] | rescue of cell proliferation with OA [4] | BiP and CHOP expression [5] | kidney cancer cell proliferation [6] | IC50 ([1]; SNU-449, read-out: IC50 (dose at which 50% of cell proliferation is inhibited)) [µM]
1 | 0.0032 | CNC(=O)c1ccnc(NC(=O)N2CCC(Oc3ccccc3Cl)CC2)c1 [SSI-4, 2-{[4-(2-Chlorophenoxy)piperidine-1-carbonyl]amino}-N-methylpyridine-4-carboxamide] | significant upregulation of luciferase activity | approximately 20% | Near total rescue of cell proliferation | strongly induced both BiP and CHOP expression | reduced kidney cancer cell proliferation | –
2 | – | CNC(=O)c1cc(Oc2ccc(NC(=O)Nc3ccc(Cl)c(C(F)(F)F)c3)cc2)ccn1 [sorafenib] | – | – | – | – | – | 2
